Each compound was assayed against T1, Beta-glucuronidase (Bos taurus) (UniProt A3KMY8) (assay: Potency index, ratio of saccharic acid 1,4-lactone IC50 to test compound IC50 for bovine liver beta-glucuronidase).
T1 sequence (whole entry): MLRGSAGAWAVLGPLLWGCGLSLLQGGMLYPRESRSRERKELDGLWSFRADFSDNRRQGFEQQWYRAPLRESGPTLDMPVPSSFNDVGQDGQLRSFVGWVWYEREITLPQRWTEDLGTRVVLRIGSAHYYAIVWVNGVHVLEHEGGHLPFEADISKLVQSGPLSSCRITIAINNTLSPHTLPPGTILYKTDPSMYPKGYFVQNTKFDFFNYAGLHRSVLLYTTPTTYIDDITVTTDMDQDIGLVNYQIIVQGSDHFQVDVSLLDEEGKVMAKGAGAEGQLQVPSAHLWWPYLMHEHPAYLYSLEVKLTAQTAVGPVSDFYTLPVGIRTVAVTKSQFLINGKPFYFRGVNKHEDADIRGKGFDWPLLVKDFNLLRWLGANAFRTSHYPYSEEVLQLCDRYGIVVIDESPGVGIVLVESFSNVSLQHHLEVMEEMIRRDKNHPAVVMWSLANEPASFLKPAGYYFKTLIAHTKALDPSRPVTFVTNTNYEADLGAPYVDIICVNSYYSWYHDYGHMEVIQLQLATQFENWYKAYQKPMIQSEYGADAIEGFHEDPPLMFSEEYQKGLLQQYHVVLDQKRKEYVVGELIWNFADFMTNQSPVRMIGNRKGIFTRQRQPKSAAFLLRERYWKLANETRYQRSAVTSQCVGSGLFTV

`O=S(=O)(Nc1cccc2ncccc12)c1cc(Cl)cc(Cl)c1O` was tested. Which Ratio IC50 did it give?
Its Ratio IC50 is 30.

How did the Ratio IC50 turn out when `O=S(=O)(Nc1cccc2cccnc12)c1ccc(Cl)cc1Cl` was run?
Its Ratio IC50 is 8.

`O=S(=O)(Nc1cccc2ncccc12)c1ccc(Cl)cc1Cl` was tested. Which Ratio IC50 did it give?
Its Ratio IC50 is 24.

Which Ratio IC50 does the source give for `O=[N+]([O-])c1ccccc1S(=O)(=O)Nc1cccc2cccnc12` here?
The Ratio IC50 was 3.

Which Ratio IC50 does the source give for `O=S(=O)(Nc1cnc2ccccc2c1)c1ccc(Cl)cc1Cl` here?
The Ratio IC50 was 6.

How did the Ratio IC50 turn out when `O=[N+]([O-])c1cccc(S(=O)(=O)Nc2cccc3cccnc23)c1` was run?
The Ratio IC50 was 3.

The compounds below were run against T2, Beta-glucuronidase (Bos taurus, UniProt A3KMY8) (assay: Inhibition of bovine liver beta-glucuronidase using p-nitrophenyl-beta-D-glucuronide as substrate preincubated for 30 mins followed by substrate addition by spectrophotometric analysis).
T2 sequence (A3KMY8 whole entry): T1 sequence (whole entry)

With `COc1ccc(S(=O)(=O)Nc2cccc3cccnc23)cc1OC` as the compound, how does the IC50 read?
The IC50 was 42.6 µM.

How did the IC50 turn out when `O=[N+]([O-])c1ccc(S(=O)(=O)Nc2cccc3cccnc23)cc1` was run?
The IC50 was 31.3 µM.

How did the IC50 turn out when `COc1ccc(S(=O)(=O)Nc2cnc3ccccc3c2)cc1OC` was run?
The IC50 was 33.5 to 53.6 µM.

`O=S(=O)(Nc1cccc2ncccc12)c1cc(Cl)ccc1Cl` was tested. Which IC50 did it give?
Its IC50 is 4.5 µM.

With `CCCc1ccc(S(=O)(=O)Nc2cccc3ncccc23)cc1` as the compound, how does the IC50 read?
Its IC50 is 75.1 µM.

For `O=[N+]([O-])c1cccc(S(=O)(=O)Nc2cnc3ccccc3c2)c1`, which IC50 is on record?
The IC50 was 46.2 µM.

`CS(=O)(=O)Nc1cccc2cccnc12` was tested. Which IC50 did it give?
Its IC50 is 48.6 µM.

With `CCCc1ccc(S(=O)(=O)Nc2cnc3ccccc3c2)cc1` as the compound, how does the IC50 read?
Its IC50 is 27.2 µM.

Which IC50 does the source give for `O=S(=O)(Oc1cccc2cccnc12)c1ccccc1` here?
Its IC50 is 49.5 µM.

`O=S(=O)(Nc1cccc2ncccc12)c1cc(Cl)cc(Cl)c1O` was tested. Which IC50 did it give?
Its IC50 is 1.6 µM.

`COc1ccc(-c2nc3ccccc3c(=O)[nH]2)cc1` was tested. Which IC50 did it give?
The IC50 was 1.1 µM.

`O=S(=O)(Nc1cccc2cccnc12)c1ccccc1` was tested. Which IC50 did it give?
Its IC50 is 66.4 µM.

How did the IC50 turn out when `COc1ccc(S(=O)(=O)Nc2cccc3ncccc23)cc1OC` was run?
Its IC50 is 43.2 µM.

`Cc1cc(S(=O)(=O)Oc2cccc3cccnc23)c(C)cc1Cl` was tested. Which IC50 did it give?
Its IC50 is 41.6 µM.

With `O=S(=O)(Nc1cnc2ccccc2c1)c1ccccc1` as the compound, how does the IC50 read?
Its IC50 is 53.4 µM.

Which IC50 does the source give for `O=S(=O)(Nc1cnc2ccccc2c1)c1cc(Cl)ccc1Cl` here?
Its IC50 is 5.5 µM.

How did the IC50 turn out when `CCCc1ccc(S(=O)(=O)Oc2cccc3cccnc23)cc1` was run?
The IC50 was 84.4 µM.

With `COc1ccc(Br)cc1S(=O)(=O)Oc1cccc2cccnc12` as the compound, how does the IC50 read?
Its IC50 is 49.5 µM.

Which IC50 does the source give for `O=S(=O)(Nc1cccc2cccnc12)c1ccc(Cl)cc1Cl` here?
The IC50 was 6.1 µM.

Which IC50 does the source give for `CCCCCCCCS(=O)(=O)Nc1cnc2ccccc2c1` here?
The IC50 was 75.1 µM.

`O=[N+]([O-])c1cccc(S(=O)(=O)Oc2cccc3cccnc23)c1` was tested. Which IC50 did it give?
The IC50 was 30.1 µM.

For `COc1ccc(-c2nc3ccccc3c(=O)[nH]2)cc1O`, which IC50 is on record?
The IC50 was 2.8 µM.

How did the IC50 turn out when `O=S(=O)(Nc1cccc2ncccc12)c1ccc(Cl)cc1Cl` was run?
Its IC50 is 2.1 µM.

For `O=[N+]([O-])c1cccc(S(=O)(=O)Nc2cccc3ncccc23)c1`, which IC50 is on record?
The IC50 was 12.2 µM.

How did the IC50 turn out when `O=[N+]([O-])c1ccccc1S(=O)(=O)Nc1cccc2cccnc12` was run?
Its IC50 is 18.2 µM.

`COc1ccc(S(=O)(=O)Nc2cccc3cccnc23)cc1` was tested. Which IC50 did it give?
Its IC50 is 49.2 µM.

How did the IC50 turn out when `O=[N+]([O-])c1ccccc1S(=O)(=O)Oc1cccc2cccnc12` was run?
The IC50 was 6.4 µM.

For `O=S(=O)(Nc1cnc2ccccc2c1)c1ccc(Cl)cc1Cl`, which IC50 is on record?
The IC50 was 8.4 µM.

How did the IC50 turn out when `O=[N+]([O-])c1ccccc1S(=O)(=O)Nc1cnc2ccccc2c1` was run?
The IC50 was 8.1 µM.

With `COc1ccc(Br)cc1S(=O)(=O)Nc1cccc2cccnc12` as the compound, how does the IC50 read?
Its IC50 is 68.5 µM.

Which IC50 does the source give for `Cc1cc(S(=O)(=O)Nc2cccc3ncccc23)c(C)cc1Cl` here?
Its IC50 is 23.5 µM.

`O=S(=O)(Nc1cccc2cccnc12)c1ccc(Cl)cc1` was tested. Which IC50 did it give?
Its IC50 is 33.4 µM.

For `O=S(=O)(Oc1cccc2cccnc12)c1ccc(Cl)cc1Cl`, which IC50 is on record?
The IC50 was 9.7 µM.

With `Cc1cc(S(=O)(=O)Nc2cnc3ccccc3c2)c(C)cc1Cl` as the compound, how does the IC50 read?
Its IC50 is 34.4 µM.

`O=[N+]([O-])c1cccc(S(=O)(=O)Nc2cccc3cccnc23)c1` was tested. Which IC50 did it give?
Its IC50 is 16.1 µM.

Which IC50 does the source give for `CCCc1ccc(S(=O)(=O)Nc2cccc3cccnc23)cc1` here?
Its IC50 is 70.5 µM.

With `Cc1cc(S(=O)(=O)Nc2cccc3cccnc23)c(C)cc1Cl` as the compound, how does the IC50 read?
The IC50 was 24.5 µM.

Which IC50 does the source give for `O=[N+]([O-])c1ccc(S(=O)(=O)Nc2cnc3ccccc3c2)cc1` here?
The IC50 was 31.6 µM.

For `COc1ccc(Br)cc1S(=O)(=O)Nc1cnc2ccccc2c1`, which IC50 is on record?
The IC50 was 66.5 µM.

For `COc1ccc(Br)cc1S(=O)(=O)Nc1cccc2ncccc12`, which IC50 is on record?
Its IC50 is 50.2 µM.

How did the IC50 turn out when `O=[N+]([O-])c1ccc(S(=O)(=O)Oc2cccc3cccnc23)cc1` was run?
The IC50 was 15.4 µM.

Reference: ChEMBL document CHEMBL4130423, “Synthesis, in vitro β-glucuronidase inhibitory potential and molecular docking studies of quinolines” (Eur J Med Chem, 2017)
